Assay [1] addresses 5-HT2C receptor. Put plainly: [3H] 5-HT binding assay, 5-HT2C receptor. To be noted: Ki=IC50/(1+[L]/[Kd]), read-out: Binding test Ki, 5-HT2C receptor. The protocol:
(§1) The 5-HT2C and 5-HT2A receptors: Carried out by [^3 H] 5-HT binding assay in accordance with the method of A. Pazos et al., Eur. J. Pharmacol., 106, 539-546 (1985) or S. Havlik and S. J. Peroutka, Brain Res., 584, 191-196 (1992).
(§2) Using the above method, a drug concentration which inhibits 50% of receptor binding of ligand (IC50 value) was calculated, and a Ki value which represents affinity for the receptor was obtained by the following formula.
(§3) ([L]: ligand concentration, [Kd]: dissociation constant)

Assay [2] has as its target 5-HT2A receptor (Homo sapiens, UniProt P28223). Description: biochemical. In kind it is binding. As for the experimental part: as §1, §2, §3

Each structure is given as a SMILES string. Structures can show the parent of a compound that is named as a salt. Where two headings read alike, the source gives them in different places.

Sequence of 5-HT2A receptor (P28223 whole entry): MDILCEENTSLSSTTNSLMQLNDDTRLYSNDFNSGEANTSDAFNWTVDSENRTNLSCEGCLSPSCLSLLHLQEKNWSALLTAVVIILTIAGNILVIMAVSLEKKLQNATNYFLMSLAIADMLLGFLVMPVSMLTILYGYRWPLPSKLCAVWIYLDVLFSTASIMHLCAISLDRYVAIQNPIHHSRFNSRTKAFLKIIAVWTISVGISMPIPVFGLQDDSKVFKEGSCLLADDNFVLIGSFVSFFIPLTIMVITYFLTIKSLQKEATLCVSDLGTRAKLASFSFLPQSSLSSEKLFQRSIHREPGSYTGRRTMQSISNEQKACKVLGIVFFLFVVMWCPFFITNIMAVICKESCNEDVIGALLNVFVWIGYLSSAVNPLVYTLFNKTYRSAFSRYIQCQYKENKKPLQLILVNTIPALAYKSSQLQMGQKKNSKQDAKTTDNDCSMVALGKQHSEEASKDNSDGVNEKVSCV

A word on the Ki: it is the equilibrium dissociation constant of an inhibitor or competing ligand from its target. For the compound `NCCn1ncc2ccc3sc(Br)cc3c21` [Example 20, 2-(7-Bromo-1H-thieno[2,3-g]indazol-1-yl)ethylamine hydrochloride], the Ki in assay [1] amounted to 0.8 nM; in assay [2], 18 nM.

Consider `COc1nn(C[C@H](C)N)c2c1ccc1occc12` [Example 37, (S)-2-(3-Methoxy-1H-furo[2,3-g]indazol-1-yl)-1-methylethylamine fumarate], for which the Ki in assay [1] is 0.5 nM; in assay [2] ([3H] 5-HT binding, Ki=IC50/(1+[L]/[Kd]), read-out: Binding test Ki, 5-HT2A receptor), 8.7 nM.

Take `CCc1nn(CCN)c2c1ccc1occc12` [Example 55, 2-(3-Ethyl-1H-furo[2,3-g]indazol-1-yl)ethylamine dihydrochloride]: the results for the Ki in assay [1] and in assay [2] were 4.1 nM and 50 nM, respectively.
